Assay results: patent publication US8088806B2 (Achillion Pharmaceuticals, Inc., priority 2005, dated 2012)

tested on: HCV replicon; experiment: Replicon based assay of HCV replication inhibition (NPT ELISA); assay type: cell-based, Hepatitis C virus; details: Hepatitis C virus, Huh-7, 72 h, Table I; Huh-7 HCV replicon-containing cells, three days; read-out: Activity
Method in brief: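 Huh-7 cells carrying a bicistronic HCV replicon (neo, EMCV-IRES-driven NS3–NS5B) treated overnight after seeding with usually 6 concentrations, 10 to 0.03 micromolar, for three days at 37° C without G418. Replication read as NPT level by captured ELISA; matched-DMSO wells and interferon alpha as controls.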

Structure (SMILES)	EC50 [nM]
CCCCCc1ccc(Nc2nc(-c3cc(C(=O)OCC)no3)cs2)cc1 [compound 185, ethyl 5-(2-(4-pentylphenylamino)thiazol-4-yl)isoxazole-3-carboxylate]	> 10000
c1ccc(CCOc2cccc(Nc3nc(-c4cccnc4)cs3)c2)cc1 [compound 89]	< 1000
CCCCCOc1ccc(Nc2nc(CN3CCN(C)CC3)cs2)cc1C(F)(F)F [compound 217, N-(3-(trifluoromethyl)-4-(pentyloxy)phenyl)-4-((4-methylpiperazin-1-yl)methyl)thiazol-2-amine]	< 1000
CCCCCOc1ccc(Nc2nc(C(=O)Nc3ccc(C(C)(C)C)cc3)cs2)cc1C(F)(F)F [compound 17, 2-(3-(trifluoromethyl)-4-(pentyloxy)phenylamino)-N-(4-tert-butylphenyl)thiazole-4-carboxamide]	> 10000
Cc1sc(Nc2cccc(Oc3ccccc3)c2)nc1-c1ccc(CC(=O)O)cc1 [compound 187, 2-(4-(2-(3-phenoxyphenylamino)-5-methylthiazol-4-yl)phenyl)acetic acid]	< 1000
CC(C)N(c1ccccc1)c1ccc(Nc2nc(-c3cccnc3)cs2)cc1 [compound 106, N1-isopropyl-N1-phenyl-N4-(4-(pyridin-3-yl)thiazol-2-yl)benzene-1,4-diamine]	> 10000
CCCCCOc1ccc(Nc2nc(-c3ccc(Cl)cc3)cs2)cn1 [compound 66, N-(4-(4-chlorophenyl)thiazol-2-yl)-6-(pentyloxy)pyridin-3-amine]	< 1000
COc1ccc(Nc2nc(-c3c(C)nc4sccn34)cs2)cc1 [compound 165, N-(4-methoxyphenyl)-4-(6-methylimidazo[2,1-b]thiazol-5-yl)thiazol-2-amine]	< 1000

same assay, conditions: Hepatitis C virus, Huh-7, 72 h, Table III; Huh-7 HCV replicon-containing cells, three days; read-out: Activity

Structure (SMILES)	EC50 [nM]
CCCCCCCCOc1cccc(Nc2nc(-c3cccnc3)cs2)c1 [compound 683, N-(3-(octyloxy)phenyl)-4-(pyridin-3-yl)thiazol-2-amine]	< 1000
Fc1ccc(-c2csc(Nc3ccc(OCC4CCCCC4)c(F)c3)n2)cn1 [compound 530, N-(4-(cyclohexylmethoxy)-3-fluorophenyl)-4-(6-fluoropyridin-3-yl)thiazol-2-amine]	< 1000
CCCCCCCCOc1ccc(Nc2nc(-c3ccc4c(c3)NC(=O)CO4)cs2)cc1C(F)(F)F [compound 584, 6-(2-(3-(trifluoromethyl)-4-(octyloxy)phenylamino)thiazol-4-yl)-2H-benzo[b][1,4]oxazin-3(4H)-one]	< 1000
CCCCCOc1ccc(Nc2nc(-c3cc4cccnc4nc3O)cs2)cc1C(F)(F)F [compound 543, 3-(2-(3-(trifluoromethyl)-4-(pentyloxy)phenylamino)thiazol-4-yl)-l,8-naphthyridin-2-ol]	1000 to 10000
CCCCCOc1ccc(Nc2nc(-c3ccc(NC)nc3)cs2)cc1C(F)(F)F [compound 535, 5-(2-(3-(trifluoromethyl)-4-(pentyloxy)phenylamino)thiazol-4-yl)-N-methylpyridin-2-amine]	< 1000
CCCCCCCCOc1ccc(Nc2nccs2)cc1C(F)(F)F [compound 605, N-(3-(trifluoromethyl)-4-(octyloxy)phenyl)thiazol-2-amine]	< 1000
CCCCCCCCc1ccc(Nc2nc(-c3ccccn3)cs2)cc1 [compound 551, N-(4-octylphenyl)-4-(pyridin-2-yl)thiazol-2-amine]	< 1000
CCCCCCCCOc1ccc(Nc2nc(-c3ccc(O)c(C(N)=O)c3)cs2)cc1C(F)(F)F [compound 581, 5-(2-(3-(trifluoromethyl)-4-(octyloxy)phenylamino)thiazol-4-yl)-2-hydroxybenzamide]	< 1000
CCCCCCCOc1ccc(C(=O)Nc2nc(-c3cccnc3)cs2)cc1 [compound 602, 4-(heptyloxy)-N-(4-(pyridin-3-yl)thiazol-2-yl)benzamide]	> 10000

same assay, conditions: Hepatitis C virus, replicon based assay of HCV replication inhibition; Table II; read-out: Activity

Structure (SMILES)	EC50 [nM]
CCCCCCCCOc1ccc(Nc2nc(-c3ccc(F)c(F)c3)cs2)cn1 [compound 474, N-(4-(3,4-difluorophenyl)thiazol-2-yl)-6-(octyloxy)pyridin-3-amine]	< 1000
COc1ccc(CNc2nc(-c3ccc(OCC(=O)O)cc3)c(C)s2)cc1 [compound 341, 2-(4-(2-(4-methoxybenzylamino)-5-methylthiazol-4-yl)phenoxy)acetic acid]	> 10000
CCCCCCCCOc1ccc(Nc2nc(-c3ccc(F)nc3)cs2)cc1 [compound 488]	< 1000
Cc1sc(Nc2ccc(OC3CCCC3)c(C(F)(F)F)c2)nc1-c1ccc(CC(=O)O)cc1 [compound 245, 2-(4-(2-(4-(cyclopentyloxy)-3-(trifluoromethyl)phenyl-amino)-5-methylthiazol-4-yl)phenyl)acetic acid]	< 1000
CCCCCOc1ccc(Nc2nc(-c3ccc(CO)nc3)cs2)cc1C(F)(F)F [compound 264, (5-(2-(4-(pentyloxy)-3-(trifluoromethyl)phenyl-amino)thiazol-4-yl)pyridin-2-yl)methanol]	< 1000
Cc1sc(Nc2cccc(C(F)(F)F)c2)nc1-c1ccc(OCC(=O)O)cc1 [compound 338, 2-(4-(5-methyl-2-(3-(trifluoromthyl)phenylamino)thiazol-4-yl)phenoxy)acetic acid]	> 10000
CCCCCCCOc1ccc(Nc2nc(-c3ccc(OC)cc3)cs2)cc1 [compound 424, N-(4-(heptyloxy)phenyl)-4-(4-methoxyphenyl)thiazol-2-amine]	< 1000
CCCCCOc1ccc(Nc2nc(CN3CCC(C(C)(C)N)C3)cs2)cc1C(F)(F)F (centres unmarked) [compound 304, 4-((3-(2-aminopropan-2-yl)pyrrolidin-1-yl)methyl)-N-(4-(pentyloxy)-3-(trifluoromethyl)phenyl)thia-zol-2-amine]	1000 to 10000
Cc1sc(Nc2cccc(C(F)(F)F)c2)nc1-c1ccc(CC(=O)O)cc1 [compound 343, 2-(4-(5-methyl-2-(3-(trifluoromethyl)phenylamino)thiazol-4-yl)phenyl)acetic acid]	> 10000

same assay, conditions: Hepatitis C virus, replicon based assay of HCV replication inhibition; Table IV; read-out: Activity

Structure (SMILES)	EC50 [nM]
COc1ncc(-c2csc(Nc3ccc(OCCC(C)CCCC(C)C)c(C(F)(F)F)c3)n2)cn1 (centres unmarked) [compound 776, N-(4-(3,7-dimethyloctyloxy)-3-(trifluoromethyl)phenyl)-4-(2-methoxypyrimidin-5-yl)thiazol-2-amine]	< 1000
Clc1cc(Nc2nc(-c3cccnc3)cs2)ccc1N1CCOCC1 [compound 742, N-(3-chloro-4-morpholinophenyl)-4-(pyridin-3-yl)thiazol-2-amine]	1000 to 10000
CCCCCCCCOc1ccc(Nc2nc(-c3cnc(Cl)c(C)c3)cs2)cc1C(F)(F)F [compound 842, 4-(6-chloro-5-methylpyridin-3-yl)-N-(3-(trifluoromethyl)-4-(octyloxy)phenyl)thiazol-2-amine]	< 1000
CCCCCCCCOc1ccc(Nc2nc(-c3cnc(N)nc3)cs2)cc1C(F)(F)F [compound 810, 5-(2-(3-(trifluoromethyl)-4-(octyloxy)phenylamino)thiazol-4-yl)pyrimidin-2-amine]	< 1000
CCOC(=O)Cc1csc(Nc2nc(-c3cccnc3)cs2)n1 [compound 790, ethyl 2-(2-(4-(pyridin-3-yl)thiazol-2-ylamino)thiazol-4-yl)acetate]	> 10000
c1cncc(-c2csc(Nc3ccc4ncsc4c3)n2)c1 [compound 753, N-(4-(pyridin-3-yl)thiazol-2-yl)benzo[d]thiazol-6-amine]	> 10000
